Source: paper PMC5964538, “Prevention of Cyclophosphamide-Induced Immunosuppression in Mice with the Antimicrobial Peptide Sublancin” (Journal of Immunology Research, 2018)
Where a name gives a salt, the structure may show the parent alone.

Key:
[1] = In vivo fluorescence imaging (biodistribution after oral dose); set-up: species or system BALB/c mice
Experimental: To observe the biodistribution of sublancin in vivo, sublancin was labeled with the near-infrared dye Cy7 monoreactive NHS ester (Invitrogen, CA, USA). Female BALB/c mice of 6–8 weeks old were given an oral dose of 100 μL Cy7-stained sublancin or free Cy7. At the indicated time points (0 h, 30 min, 2 h, 6 h, 12 h, 24 h, and 48 h), mice were anesthetized with 2.5% isoflurane and then placed in the in vivo Imaging System (FXPro Kodak). The excitation and emission bandpass filter was 730 nm and 790 nm, respectively. Fluorescence signals were collected by Carestream Molecular Imaging Software. At 12 h, mice were euthanized and the ex vivo optical images of the intestine, heart, liver, spleen, lung, and kidney were recorded using the same system.

[2] = Peripheral hemogram analysis in cyclophosphamide-treated mice; format: in vivo, BALB/c mice; conditions: gavage 10.0 mg/kg for 7 days, compared with the NC treatment (so in the source), n = 6
IL-1β mRNA = experiment: IL-1β gene expression in peritoneal macrophages after oral administration (real-time PCR); format: in vivo, BALB/c mice; conditions: oral 2.5 mg/kg BW/d for 7 days, vs control, P < 0.05, n = 6
IL-6 mRNA = experiment: IL-6 gene expression in peritoneal macrophages after oral administration (real-time PCR); format: in vivo, BALB/c mice; conditions: oral 2.5 mg/kg BW/d for 7 days, vs control, P < 0.05, n = 6
TNF-α mRNA = experiment: TNF-α gene expression in peritoneal macrophages after oral administration (real-time PCR); format: in vivo, BALB/c mice; conditions: oral 2.5 mg/kg BW/d for 7 days, vs control, P < 0.05, n = 6

| Fluorescence in the excised intestine (ex vivo images) ([1]; 12 h after gavage) | Fluorescent signal in the heart, liver, spleen, lung, and kidney (ex vivo images) ([1]; 12 h after gavage) | Presence in the intestine (in vivo fluorescence) ([1]; oral dose of 100 μL, twelve hours after administration) | Fluorescent signal in vivo ([1]; oral dose of 100 μL, within 6 h) | Compound | HGB [2] | Number of RBC [2] | Number of WBC [2] | Number of platelets [2] | Gene expression level of IL-1β in peritoneal macrophages (IL-1β mRNA) | Gene expression level of IL-6 in peritoneal macrophages (IL-6 mRNA) | Gene expression level of TNF-α in peritoneal macrophages (TNF-α mRNA) |
| --- | --- | --- | --- | --- | --- | --- | --- | --- | --- | --- | --- |
| only very little | Almost no fluorescent signal | most of the free Cy7 had disappeared | weak fluorescent signals | CCN1C(=CC=CC=CC=CC2=[N+](CCCCCC(=O)O)c3ccc(S(=O)(=O)O)cc3C2(C)C)C(C)(C)c2cc(S(=O)(=O)[O-])ccc21 [free Cy7] | – | – | – | – | – | – | – |
| – | – | – | – | c1ccc([C@H]2CN3CCSC3=N2)cc1 [levamisole hydrochloride] | higher | higher | higher | higher | higher than that in the control group | higher than that in the control group | higher than that in the control group |
